Laboratory results from paper PMC4774972, “Activity and Predicted Nephrotoxicity of Synthetic Antibiotics Based on Polymyxin B” (Journal of Medicinal Chemistry, 2016).
Numbered stars: 1 amine (or outer) side, 2 acyl side, 3 side chain; on linkers, the order of the positions; unused ones are H or OH. Bridge positions count the residues as written; N and C are the ends. Square brackets hold non-standard residues; d marks the D form. Peptide text beside a SMILES is read from it. * marks the point of attachment. NH(2-ClPh) = Clc1ccccc1N*; dDab = NCC[C@@H](N)C(=O)O; hSer = N[C@@H](CCO)C(=O)O; Octanoyl = CCCCCCCC(=O)*; Dab = NCC[C@H](N)C(=O)O; CO = O=C([*:1])[*:2]

Experiments:
[1] = test system: S. aureus ATCC 25923, MSSA; conditions: MIC S. aureus ATCC 25923, MSSA (µg/mL)
[2] = test system: K. pneumoniae CI 138-16357-20362, PmxR; conditions: MIC K. pneumoniae CI 138-16357-20362, PmxR (µg/mL)
[3] = test system: A. baumannii CI Ptyela 100734512:2, PmxR; conditions: MIC A. baumannii CI Ptyela 100734512:2, PmxR (µg/mL)
[4] = test system: K. pneumoniae CI Koprana 100650661:1, PmxR; conditions: MIC K. pneumoniae CI Koprana 100650661:1, PmxR (µg/mL)
[5] = test system: P. aeruginosa PA9704, PmxR; conditions: MIC P. aeruginosa PA9704, PmxR (µg/mL)
[6] = test system: P. aeruginosa PA9704, PmxR; type: cell-based, Pseudomonas aeruginosa; conditions: polymyxin resistant clinical isolate; MHB, 5 × 10^5 CFU/mL, 18 h at 37 °C
Procedure: (§1) Bacteria were either obtained from American Type Culture Collection (ATCC; Manassas, VA, USA) or independent academic clinical isolate collections, as listed in Table S2. Bacteria were cultured in nutrient broth (NB; Bacto Laboratories, catalog no. 234000) or Muller Hinton broth (MHB; Bacto Laboratories, catalog no. 211443) at 37 °C overnight with shaking (∼180 rpm). A sample of each culture was then diluted 50-fold in fresh MHB and incubated at 37 °C for 1.5–3 h with shaking (∼180 rpm). Compound stock solutions were prepared as 0.64 or 2.56 mg/mL in water. The compounds, at twice the final desired concentration, were serially diluted 2-fold across the wells of 96-well plates (Polystyrene, Corning, catalogue No. 3370). Mid log phase bacterial cultures (after 1.5–3 h incubation) were diluted to a final concentration of 5 × 10^5 colony forming units (CFU)/mL, and 50 μL was added to each well giving a final compound concentration range of 32 μg/mL to 0.015 μg/mL (128–0.06 μg/mL for colistin and polymyxin B against the polymyxin resistant clinical isolates). MICs were determined visually after 18 h of incubation at 37 °C, with the MIC defined as the lowest compound concentration at which no bacterial growth was visible.
(§2) Table S2. Bacterial strains used for Minimum Inhibitory Concentration (MIC) […]
(§3) Organism Strain Strain description Strain Source
(§4) Escherichia coli ATCC 25922 FDA strain Seattle 1946 ATCC
(§5) Klebsiella pneumoniae ATCC 13883 Control strain ATCC
(§6) Klebsiella pneumoniae ATCC 700603 Multi-drug resistant ATCC
(§7) Klebsiella pneumoniae BAA-2146 Metallo-beta-lactamase- ATCC
(§8) Acinetobacter baumannii ATCC 19606 Type strain ATCC
(§9) Pseudomonas aeruginosa ATCC 27853 Type strain ATCC
(§10) Pseudomonas aeruginosa FADDI-PA070 Clinical isolate, Nation and Li labs, polymyxin resistant Monash University
(§11) Clinical isolate, Wang Hengzhuang, Pseudomonas aeruginosa PA9704 polymyxin resistant University Hospital of […]
(§12) Ptyela Clinical isolate, Ilias Karaiskos and Acinetobacter baumannii Carbapenem & Helen Giamarellou
(§13) Clinical isolate, Medicine, Hygeia
(§14) Klebsiella pneumoniae Koprana Carbapenem, & General Hospital, […]
(§15) Clinical isolate, (Instituto Dante […]
(§16) polymyxin resistant Cardiologia, São […]

[7] = test system: HepG2 cells; assay: Cytotoxicity assay (resazurin assay); type: cell-based, human; conditions: 4000 cells/well, 24 h incubation with compound, fluorescence 560/590
Procedure: Cytotoxicity to HEK293 and HepG2 cells was determined using the resazurin assay.[67],[68] […] Compounds were then added into each well. After 24 h incubation, 5 μM resazurin was added per well and incubated at 37 °C for 2 h. Fluorescence intensity was then read using a Polarstar Omega with excitation/emission 560/590. The data were then analyzed using GraphPad Prism 6 software. CC50 values were determined using GraphPad Prism 6 software (Inc. La Jolla, CA).

[8] = test system: S. aureus ATCC 25923, MSSA; assay: microbe, parasite or virus in culture; type: cell-based, Staphylococcus aureus; conditions: MHB, 5 × 10^5 CFU/mL, read visually after 18 h at 37 °C
Procedure: as §1, §2, §3, §4, §5, §6, §7, §8, §9, §10, §11, §12, §13, §14, §15, §16

[9] = test system: K. pneumoniae CI 138-16357-20362, PmxR; assay: microbe, parasite or virus in culture; type: cell-based, Klebsiella pneumoniae; conditions: carbapenem & polymyxin resistant clinical isolate; MHB, 5 × 10^5 CFU/mL, 18 h at 37 °C
[10] = test system: K. pneumoniae CI Koprana 100650661:1, PmxR; assay: microbe, parasite or virus in culture; type: cell-based, Klebsiella pneumoniae; conditions: carbapenem & polymyxin resistant clinical isolate; MHB, 5 × 10^5 CFU/mL, 18 h at 37 °C
[11] = test system: HepG2; conditions: CC50 HepG2 (µM)
[12] = test system: A. baumannii CI Ptyela 100734512:2, PmxR; assay: microbe, parasite or virus in culture; type: cell-based, Acinetobacter baumannii; conditions: carbapenem & polymyxin resistant clinical isolate; MHB, 5 × 10^5 CFU/mL, 18 h at 37 °C
Procedure: as §1, §2, §3, §4, §5, §6, §7, §8, §9, §10, §11, §12, §13, §14, §15, §16

[13] = test system: K. pneumoniae ATTC BAA-2146, NDM-1 pos; conditions: MIC K. pneumoniae ATTC BAA-2146, NDM-1 pos (µg/mL)
[14] = test system: P. aeruginosa FADDI-PA070, PmxR; conditions: MIC P. aeruginosa FADDI-PA070, PmxR (µg/mL)
[15] = test system: A. baumannii ATCC 19606; conditions: MIC A. baumannii ATCC 19606 (µg/mL)
[16] = test system: E. coli ATCC 25922; conditions: MIC E. coli ATCC 25922 (µg/mL)
[17] = test system: K. pneumoniae ATCC 13883; conditions: MIC K. pneumoniae ATCC 13883 (µg/mL)
[18] = test system: K. pneumoniae ATCC 700603, MDR; conditions: MIC K. pneumoniae ATCC 700603, MDR(µg/mL)
[19] = test system: P. aeruginosa ATCC 27853; conditions: MIC P. aeruginosa ATCC 27853 (µg/mL)

Row | SMILES | MIC [1] | MIC [2] | MIC [3] | MIC [4] | MIC [5] | MIC P. aeruginosa PA9704, PmxR [6] | HepG2 - CC50 [7] | MIC S. aureus ATCC 25923, MSSA [8] | MIC K. pneumoniae CI 138-16357-20362, PmxR [9] | MIC K. pneumoniae CI Koprana 100650661:1, PmxR [10] | CC50 [11] | MIC A. baumannii CI Ptyela 100734512:2, PmxR [12] | MIC [13] | MIC [14] | MIC [15] | MIC [16] | MIC [17] | MIC [18] | MIC [19]
1 | CC(C)C[C@@H]1NC(=O)[C@@H](Cc2ccccc2)NC(=O)[C@H](CCN)NC(=O)[C@@H](NC(=O)[C@@H](CCN)NC(=O)[C@@H](NC(=O)[C@H](CCN)NC(=O)Nc2ccccc2Cl)[C@@H](C)O)CCNC(=O)[C@H]([C@@H](C)O)NC(=O)[C@H](CCN)NC(=O)[C@H](CCN)NC1=O [Compound 16] ({NH(2-ClPh)-CO}-[Dab]T[dDab][Dab][Dab][dF]L[Dab][Dab]T; lactam 4-C) | > 32 µg/mL | > 32 µg/mL | > 32 µg/mL | > 32 µg/mL | > 32 µg/mL | >32 µg/mL | >300 µM | >32 µg/mL | >32 µg/mL | >32 µg/mL | > 300 µM | >32 µg/mL |  |  |  |  |  |  | 
2 | CC(C)C[C@@H]1NC(=O)[C@@H](Cc2ccccc2)NC(=O)[C@H](CCN)NC(=O)[C@@H](NC(=O)[C@@H](CO)NC(=O)[C@@H](NC(=O)[C@H](CCN)NC(=O)Nc2ccccc2Cl)[C@@H](C)O)CCNC(=O)[C@H]([C@@H](C)O)NC(=O)[C@H](CCN)NC(=O)[C@H](CCN)NC1=O [Compound 17] ({NH(2-ClPh)-CO}-[Dab]T[dS][Dab][Dab][dF]L[Dab][Dab]T; lactam 4-C) | > 32 µg/mL | > 32 µg/mL | > 32 µg/mL | > 32 µg/mL | > 32 µg/mL |  |  |  | >32 µg/mL | >32 µg/mL | > 300 µM |  | > 32 µg/mL | > 32 µg/mL | > 32 µg/mL |  |  |  | 
3 | CCCCCCCC(=O)N[C@@H](CCN)C(=O)N[C@H](C(=O)N[C@@H](CCN)C(=O)N[C@H]1CCNC(=O)[C@H]([C@@H](C)O)NC(=O)[C@H](CCN)NC(=O)[C@H](CCN)NC(=O)[C@H](CC(C)C)NC(=O)[C@@H](Cc2ccccc2)NC(=O)[C@H](CCNC(=O)[C@@H](N)CCC(=O)O)NC1=O)[C@@H](C)O [Compound 32] (Octanoyl-[Dab]T[Dab][Dab][Dab](Glu)[dF]L[Dab][Dab]T; lactam 4-C) | > 32 µg/mL | > 32 µg/mL | > 32 µg/mL | > 32 µg/mL | > 32 µg/mL |  |  |  | >32 µg/mL | >32 µg/mL | > 300 µM |  |  | > 32 µg/mL | > 32 µg/mL | > 32 µg/mL | > 32 µg/mL | > 32 µg/mL | > 32 µg/mL
4 | CCCCCCCC(=O)N[C@@H](CCN)C(=O)N[C@H](C(=O)N[C@@H](CCN)C(=O)N[C@H]1CCNC(=O)[C@H]([C@@H](C)O)NC(=O)[C@H](CCN)NC(=O)[C@H](CCN)NC(=O)[C@H](CC(C)C)NC(=O)[C@@H](Cc2ccccc2)NC(=O)[C@H](CCO)NC1=O)[C@@H](C)O [Compound 33] (Octanoyl-[Dab]T[Dab][Dab][hSer][dF]L[Dab][Dab]T; lactam 4-C) | > 32 µg/mL | > 32 µg/mL | > 32 µg/mL | > 32 µg/mL | > 32 µg/mL |  |  |  | >32 µg/mL | >32 µg/mL | > 300 µM |  |  | > 32 µg/mL | > 32 µg/mL |  | > 32 µg/mL | > 32 µg/mL | > 32 µg/mL
